26 compounds from patent US20220089592A1, “IMIDAZO[1,2-A]PYRIDINYL DERIVATIVES AS IRAK4 INHIBITORS” (priority 2019, published 2022) can be followed below.

The test has as its target T1, IRAK4 (Homo sapiens, UniProt Q9NWZ3).
T1 sequence (Q9NWZ3 1-460): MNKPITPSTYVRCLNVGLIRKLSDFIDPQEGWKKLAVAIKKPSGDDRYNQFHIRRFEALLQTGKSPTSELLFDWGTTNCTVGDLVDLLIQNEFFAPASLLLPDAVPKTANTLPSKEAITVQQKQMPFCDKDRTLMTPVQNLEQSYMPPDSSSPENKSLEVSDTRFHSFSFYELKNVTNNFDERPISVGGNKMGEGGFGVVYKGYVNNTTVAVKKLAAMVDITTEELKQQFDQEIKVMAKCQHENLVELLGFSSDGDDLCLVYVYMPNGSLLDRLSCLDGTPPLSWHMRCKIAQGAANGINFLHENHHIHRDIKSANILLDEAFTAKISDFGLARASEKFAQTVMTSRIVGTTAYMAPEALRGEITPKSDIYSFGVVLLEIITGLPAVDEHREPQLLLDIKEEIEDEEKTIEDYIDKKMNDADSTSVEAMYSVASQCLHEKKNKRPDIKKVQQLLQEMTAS
Description: 2-hour 1 mM ATP IRAK4 Biochemical assay (as above, but with 100 pM IRAK4 and 1 mM ATP). As to conditions: IRAK4 MSD BIOCHEMICAL (1 mM ATP) IC50 (μM), 100 pM IRAK4, 2 hours. The method, then:
The 2-hour 10 μM ATP Biochemical Assay employs a MesoScale Detection (MSD) format.
The activity is quenched with 11 μl of 70 mM EDTA, pH 8.
To detect the phosphorylated biotinylated peptide substrate, 30 μl of the quenched reaction mixture is added to equivalent wells of a 384 well streptavidin coated MesoScale plate (Meso Scale Discovery #L21SA-1). After a 1 hour incubation of the plate for 1 hour at room temperature with gentle mixing, the plate wells are washed 3 times with 50 mM Tris, pH 7.5, 150 mM NaCl, 0.02% Tween-20.
A 25 μl volume of 1:500 anti-P-Threonine Rabbit polyclonal Antibody plus 1:500 Goat-anti-Rabbit Sulfo Tag Antibody (Meso Scale Discovery R32AB-1) in 50 mM Tris, pH 7.5, 150 mM NaCl, 0.02% Tween-20 plus 2% BSA is then added to each well. After a 1-hour incubation of the plate for 1 hour at room temperature with gentle mixing, the plate wells are washed, 3 times with 50 mM Tris, pH 7.5, 150 mM NaCl, 0.02% Tween-20. A 40 μl volume of 2×MSD Read Buffer (Meso Scale Discovery R92TC-1) is added to each well, and the plate is read immediately in an MSD Plate Reader (Meso Scale Discovery).
The 2-hour 1 mM ATP IRAK4 Biochemical assay was performed as described above, but with 100 pM IRAK4 and 1 mM ATP.
Consider `CCOc1cc2nc(CCCOC)cn2cc1NC(=O)c1cccc(C(F)F)n1` [Example 12, 6-(difluoromethyl)-N-(7-ethoxy-2-(3-methoxypropyl)imidazo[1,2-a]pyridin-6-yl)picolinamide], for which the IC50 was determined as 0.001 µM.

As to `CCOc1cc2nc(CC3CCOC3)cn2cc1NC(=O)c1cccc(C(F)F)n1` (centres unmarked) [Example 14, 6-(difluoromethyl)-N-(7-ethoxy-2-((tetrahydrofuran-3-yl)methyl)imidazo[1,2-a]pyridin-6-yl)picolinamide], it took 0.001 µM to reach half-maximal inhibition (IC50).

Consider `CCOc1cc2nc(C3CN(CC(F)(F)F)C3)cn2cc1NC(=O)c1cccc(C(F)F)n1` [Example 77, 6-(difluoromethyl)-N-(7-ethoxy-2-(1-(2,2,2-trifluoroethyl)azetidin-3-yl)imidazo[1,2-a]pyridin-6-yl)picolinamide], for which it took 0.001 µM to reach half-maximal inhibition (IC50).

On to `CCOc1cc2nc(C3CN(CC(F)F)C3)cn2cc1NC(=O)c1cccc(C(F)F)n1` [Example 78, N-(2-(1-(2,2-difluoroethyl)azetidin-3-yl)-7-ethoxyimidazo[1,2-a]pyridin-6-yl)-6-(difluoromethyl)picolinamide], for which half-maximal inhibition (IC50) required 0.001 µM.

As for `CC1(C)CCC1Oc1cc2nc(C3CCOCC3)cn2cc1NC(=O)c1cccc(C(F)F)n1` (centres unmarked) [Example 177, 6-(difluoromethyl)-N-(7-(2,2-dimethylcyclobutoxy)-2-(tetrahydro-2H-pyran-4-yl)imidazo[1,2-a]pyridin-6-yl)picolinamide], half-maximal inhibition (IC50) was put at 0.001 µM. This lies in the single-digit nanomolar range.

The compound `O=C(Nc1cn2cc(C3CCOCC3)nc2cc1OC1CCOC1)c1cccc(C(F)F)n1` (centres unmarked) [Example 183, 6-(difluoromethyl)-N-(2-(tetrahydro-2H-pyran-4-yl)-7-((tetrahydrofuran-3-yl)oxy)imidazo[1,2-a]pyridin-6-yl)picolinamide] gave an IC50 of 0.001 µM.

Regarding `C[C@@H]1C[C@H](Oc2cc3nc(C4CCOCC4)cn3cc2NC(=O)c2cccc(C(F)F)n2)C[C@H](C)O1` [Example 187, 6-(difluoromethyl)-N-(7-(((2R*,4R*,6S*)-2,6-dimethyltetrahydro-2H-pyran-4-yl)oxy)-2-(tetrahydro-2H-pyran-4-yl)imidazo[1,2-a]pyridin-6-yl)picolinamide], the IC50 came to 0.001 µM. This counts as single-digit nanomolar.

`O=C(Nc1cn2cc(C3CCOCC3)nc2cc1OCCF)c1cccc(C(F)F)n1` [Example 188, 6-(difluoromethyl)-N-(7-(2-fluoroethoxy)-2-(tetrahydro-2H-pyran-4-yl)imidazo[1,2-a]pyridin-6-yl)picolinamide] registered an IC50 of 0.001 µM. In other words, the single-digit nanomolar range.

As to `CCO[C@H]1C[C@H](Oc2cc3nc(C4CCOCC4)cn3cc2NC(=O)c2cccc(C(F)F)n2)C1` [Example 190, 6-(difluoromethyl)-N-(7-((1R*,3R*)-3-ethoxycyclobutoxy)-2-(tetrahydro-2H-pyran-4-yl)imidazo[1,2-a]pyridin-6-yl)picolinamide], the IC50 was found to be 0.001 µM.

Consider `O=C(Nc1cn2cc(C3CCOCC3)nc2cc1OCC1CC(F)(F)C1)c1cccc(C(F)F)n1` [Example 191, N-(7-((3,3-difluorocyclobutyl)methoxy)-2-(tetrahydro-2H-pyran-4-yl)imidazo[1,2-a]pyridin-6-yl)-6-(difluoromethyl)picolinamide], for which the IC50 amounted to 0.002 µM.

As for `O=C(Nc1cn2cc(C3CCOCC3)nc2cc1OCCOC(F)F)c1cccc(C(F)F)n1` [Example 192, N-(7-(2-(difluoromethoxy)ethoxy)-2-(tetrahydro-2H-pyran-4-yl)imidazo[1,2-a]pyridin-6-yl)-6-(difluoromethyl)picolinamide], the IC50 was 0.002 µM.

As for `O=C(Nc1cn2cc(C3CCOCC3)nc2cc1OCC1CCCOC1)c1cccc(C(F)F)n1` (centres unmarked) [Example 193, 6-(difluoromethyl)-N-(7-((tetrahydro-2H-pyran-3-yl)methoxy)-2-(tetrahydro-2H-pyran-4-yl)imidazo[1,2-a]pyridin-6-yl)picolinamide], half-maximal inhibition (IC50) required 0.001 µM.

As for `O=C(Nc1cn2cc(C3CCOCC3)nc2cc1OCC1CC12CCOC2)c1cccc(C(F)F)n1` (centres unmarked) [Example 194, N-(7-((5-oxaspiro[2.4]heptan-1-yl)methoxy)-2-(tetrahydro-2H-pyran-4-yl)imidazo[1,2-a]pyridin-6-yl)-6-(difluoromethyl)picolinamide], the IC50 is 0.002 µM.

In turn, `O=C(Nc1cn2cc(C3CCOCC3)nc2cc1OCCC1CCOC1)c1cccc(C(F)F)n1` (centres unmarked) [Example 195, 6-(difluoromethyl)-N-(2-(tetrahydro-2H-pyran-4-yl)-7-(2-(tetrahydrofuran-3-yl)ethoxy)imidazo[1,2-a]pyridin-6-yl)picolinamide] had an IC50 of 0.002 µM.

Take `O=C(Nc1cn2cc(C3CCOCC3)nc2cc1OCC1CC1(F)F)c1cccc(C(F)F)n1` (centres unmarked) [Example 196, N-(7-((2,2-difluorocyclopropyl)methoxy)-2-(tetrahydro-2H-pyran-4-yl)imidazo[1,2-a]pyridin-6-yl)-6-(difluoromethyl)picolinamide]: the midpoint of inhibition, the IC50, lay at 0.001 µM.

Regarding `CC1(COc2cc3nc(C4CCOCC4)cn3cc2NC(=O)c2cccc(C(F)F)n2)CCOC1` (centres unmarked) [Example 197, 6-(difluoromethyl)-N-(7-((3-methyltetrahydrofuran-3-yl)methoxy)-2-(tetrahydro-2H-pyran-4-yl)imidazo[1,2-a]pyridin-6-yl)picolinamide], 0.004 µM corresponded to half-maximal inhibition (IC50).

Compound `O=C(Nc1cn2cc(C3CCOCC3)nc2cc1OCC1(C(F)F)CCC1)c1cccc(C(F)F)n1` [Example 198, 6-(difluoromethyl)-N-(7-((1-(difluoromethyl)cyclobutyl)methoxy)-2-(tetrahydro-2H-pyran-4-yl)imidazo[1,2-a]pyridin-6-yl)picolinamide] showed an IC50 of 0.001 µM.

`CC12CC(c3cn4cc(NC(=O)c5cccc(C(F)F)n5)nc(OCc5ccccc5)c4n3)(CO1)C2` [Example 199, N-(8-(benzyloxy)-2-(1-methyl-2-oxabicyclo[2.1.1]hexan-4-yl)imidazo[1,2-a]pyrazin-6-yl)-6-(difluoromethyl)picolinamide] yielded an IC50 of 0.016 µM.

Compound `CC12CC(c3cn4cc(NC(=O)c5cccc(C(F)F)n5)nc(O)c4n3)(CO1)C2` [Example 200, 6-(difluoromethyl)-N-(8-hydroxy-2-(1-methyl-2-oxabicyclo[2.1.1]hexan-4-yl)imidazo[1,2-a]pyrazin-6-yl)picolinamide] had an IC50 of 0.06 µM.

Turning to `CCOc1nc(NC(=O)c2cccc(C(F)F)n2)cn2cc(C34COC(C)(C3)C4)nc12` [Example 201, 6-(difluoromethyl)-N-(8-ethoxy-2-(1-methyl-2-oxabicyclo[2.1.1]hexan-4-yl)imidazo[1,2-a]pyrazin-6-yl)picolinamide], half-maximal inhibition (IC50) required 0.004 µM.

For `CCOc1cc2nc(C3CCOCC3)cn2cc1NC(=O)c1cccc(CC)n1` [Example 217, N-(7-ethoxy-2-(tetrahydro-2H-pyran-4-yl)imidazo[1,2-a]pyridin-6-yl)-6-ethylpicolinamide], the IC50 is 0.001 µM.

For the compound `CC(C)Oc1cc2nc(C3CCOCC3)cn2cc1NC(=O)c1cc(C(F)F)cs1` [Example 232, 4-(difluoromethyl)-N-(7-isopropoxy-2-(tetrahydro-2H-pyran-4-yl)imidazo[1,2-a]pyridin-6-yl)thiophene-2-carboxamide], the IC50 was 0.044 µM.

`CCOc1cc2nc(C3C4COCC43)cn2cc1NC(=O)c1ccn(CC(F)(F)F)n1` (centres unmarked) [Example 235, N-(2-(3-oxabicyclo[3.1.0]hexan-6-yl)-7-ethoxyimidazo[1,2-a]pyridin-6-yl)-1-(2,2,2-trifluoroethyl)-1H-pyrazole-3-carboxamide] gave an IC50 of 0.023 µM.

Regarding `COc1cc(NC(=O)c2csc(C3CC3)n2)cn2cc(C3CCOCC3)nc12` [Example 244, 2-cyclopropyl-N-(8-methoxy-2-(tetrahydro-2H-pyran-4-yl)imidazo[1,2-a]pyridin-6-yl)thiazole-4-carboxamide], the IC50 came to 0.028 µM. This IC50 and that of the compound before are within 1.5-fold of each other.

`CCOc1cc2nc(CC3CCS(=O)(=O)C3)cn2cc1NC(=O)c1cccc(C(F)F)n1` (centres unmarked) [Example 257, 6-(difluoromethyl)-N-(2-((1,1-dioxidotetrahydrothiophen-3-yl)methyl)-7-ethoxyimidazo[1,2-a]pyridin-6-yl)picolinamide] gave an IC50 of 0.001 µM.

`CC(C)Oc1cc2nc(C34CC(F)(C3)C4)cn2cc1NC(=O)c1cccc(C(F)F)n1` [Example 258, 6-(difluoromethyl)-N-(2-(3-fluorobicyclo[1.1.1]pentan-1-yl)-7-isopropoxyimidazo[1,2-a]pyridin-6-yl)picolinamide]: half-maximal inhibition (IC50) was put at 0.001 µM.
